These results are taken from article PMC7411605, “Xanthine Oxidase Inhibition and Anti-LDL Oxidation by Prenylated Isoflavones from Flemingia philippinensis Root” (Molecules, 2020).

For assay [1], the target named is T1, Bovine milk xanthine oxidase (XO, EC 1.17.3.2) (Bos taurus, UniProt P80457).
T1 construct: Xanthine oxidase from bovine milk (EC 1.17.3.2); purchased Sigma Aldrich Co., (St. Louis, MO, USA); host or cells: bovine milk
Nature of the assay: Xanthine oxidase activity (uric acid formation at 295 nm). It counts as biochemical. The note with it: initial velocity versus enzyme amount, 0~12.5 μM of compound.

Another assay deals with T2, xanthine oxidase (Bos taurus, UniProt P80457).
T2 construct: Xanthine oxidase from bovine milk (EC 1.17.3.2); purchased Sigma Aldrich Co., (St. Louis, MO, USA); host or cells: bovine milk
Nature of the assay: Fluorescence quenching of xanthine oxidase (binding affinity). Details: species or system bovine. How it is done: The binding affinity between xanthine oxidase and isolated isoflavones were measured by fluorescence quenching method. For the fluorescence quenching experiments, the Trp intensities of xanthine oxidase were monitored wavelength of emission from 300 to 400 nm and excitation of 290 nm. The reaction mixture containing 180 μL of 200 mM sodium pyrophosphate/HCl (pH 7.5), 10 μL of isolated isoflavones diluted in DMSO (3.125, 6.25, 12.5, 25.0, and 50.0 μM), and 10 μL of 1 unit/mL xanthine oxidase was placed in black/flat bottom 96-well microplates. […] The quenching parameters such as the Stern–Volmer constant (KSV), binding constant (KA), and the number of binding sites (n) were determined by the Equations (5) and (6). F0 − F = 1 + KSV [Q](5) Log [(F0 − F)/F] = log KA + n log [Q]f(6)

Assay [2] deals with human LDL. Nature of the assay: Conjugated diene formation on Cu2+ induced LDL oxidation. It counts as biochemical. The note with it: at 10 μM of compound; 234 nm, followed for 180 min. How it is done: The formation of conjugated dienes from oxLDL was assessed by the method. The conjugated diene formation occurred in the clear bottom 96-well plate. The mixture of each well containing 230 μL of 550 μg/mL LDL in the buffer (10 mM PBS, pH 7.4) and 10 μL of 250 μM CuSO4 (final concentration: 10 μM) in the presence or absence of isoflavones or probucol as a positive control (final concentration: 10 μM) were incubated at 37 °C for 4 h. Then, the reaction was screened at 234 nm for 180 min every 5 min, continuously, incubating in the SpectraMax M3 multi-mode microplate reader. In the observed absorbance spectra, the lag time of tested samples was obtained as the endpoint indicated in the lag phase.

Assay [3] addresses T1, Bovine milk xanthine oxidase (XO, EC 1.17.3.2). Nature of the assay: Xanthine oxidase inhibition kinetics (Lineweaver–Burk and Dixon plots). It counts as biochemical. How it is done: The inhibition mode and inhibitory constants were determined by Lineweaver–Burk and Dixon plots. For obtaining double reciprocal plots, was measured the reaction absorbance of the enzyme, inhibited by different concentrations of inhibitors, with three concentrations of xanthine (15, 30, and 60 μM) at 295 nm and 37 °C. The corresponding kinetic parameters, namely the Michaelis-Menten constant (Km), maximal velocity (Vmax), inhibitory constant (Ki), and dissociation constant of a binding site for the inhibitor to either free enzyme or the enzyme-substrate complex (KI and KIS) were determined by Equations (2)–(4).

Assay [4] has as its system human LDL. Nature of the assay: TBARS assay of Cu2+ induced LDL oxidation. It is filed as biochemical. The procedure:
Thiobarbituric acid reactive substances (TBARS) assay was carried out according to the previous method with minor modifications. The absorbance of a product of a reaction between thiobarbituric acid (TBA) and malondialdehyde (MDA) was measured at 540 nm. First, 220 μL of 500 μg/mL LDL in a buffer (10 mM PBS, pH 7.4), 10 μL of […], and 10 μL of different concentrations from 0 to 3 mM of isoflavones or probucol as a positive control were mixed in 1.5 mL Eppendorf tube and incubated at 37 °C for 4 h. After incubation, 100 μL of trichloroacetic acid (TCA) and 100 μL of 0.67% thiobarbituric acid (TBA)/0.05 N NaOH were added to the reaction mixture and heated in the water bath at 100 °C for 15 min. After heating, the mixture was cooled on the ice and centrifuged for 15 min at 3000 rpm. The absorbance of supernatant was measured and the IC50 values were calculated from the inhibition rate derived from Equation (1).

Assay [5] deals with T1, Bovine milk xanthine oxidase (XO, EC 1.17.3.2). Description: Xanthine oxidase activity (uric acid formation at 295 nm). It is filed as biochemical. The note with it: sample concentration which leads to 50% xanthine oxidase activity loss; xanthine substrate, pH 7.5, 37 °C; read-out: IC50, xanthine oxidase inhibition (converted). How it is done:
The half-maximal inhibitory concentrations (IC50) were calculated according to the enzyme inhibition rate (%) derived from the change of uric acid formation in comparison with the concentration of inhibitors. The inhibition rate derived from the non-linear regression fitting to Equation (1). Inhibition rate (%) = 100 × [(rate of control reaction − rate of inhibitor reaction)/rate of control reaction](1)

SMILES strings stand for the structures. Where two headings read alike, the source gives them in different places.

T1 sequence (P80457 whole entry): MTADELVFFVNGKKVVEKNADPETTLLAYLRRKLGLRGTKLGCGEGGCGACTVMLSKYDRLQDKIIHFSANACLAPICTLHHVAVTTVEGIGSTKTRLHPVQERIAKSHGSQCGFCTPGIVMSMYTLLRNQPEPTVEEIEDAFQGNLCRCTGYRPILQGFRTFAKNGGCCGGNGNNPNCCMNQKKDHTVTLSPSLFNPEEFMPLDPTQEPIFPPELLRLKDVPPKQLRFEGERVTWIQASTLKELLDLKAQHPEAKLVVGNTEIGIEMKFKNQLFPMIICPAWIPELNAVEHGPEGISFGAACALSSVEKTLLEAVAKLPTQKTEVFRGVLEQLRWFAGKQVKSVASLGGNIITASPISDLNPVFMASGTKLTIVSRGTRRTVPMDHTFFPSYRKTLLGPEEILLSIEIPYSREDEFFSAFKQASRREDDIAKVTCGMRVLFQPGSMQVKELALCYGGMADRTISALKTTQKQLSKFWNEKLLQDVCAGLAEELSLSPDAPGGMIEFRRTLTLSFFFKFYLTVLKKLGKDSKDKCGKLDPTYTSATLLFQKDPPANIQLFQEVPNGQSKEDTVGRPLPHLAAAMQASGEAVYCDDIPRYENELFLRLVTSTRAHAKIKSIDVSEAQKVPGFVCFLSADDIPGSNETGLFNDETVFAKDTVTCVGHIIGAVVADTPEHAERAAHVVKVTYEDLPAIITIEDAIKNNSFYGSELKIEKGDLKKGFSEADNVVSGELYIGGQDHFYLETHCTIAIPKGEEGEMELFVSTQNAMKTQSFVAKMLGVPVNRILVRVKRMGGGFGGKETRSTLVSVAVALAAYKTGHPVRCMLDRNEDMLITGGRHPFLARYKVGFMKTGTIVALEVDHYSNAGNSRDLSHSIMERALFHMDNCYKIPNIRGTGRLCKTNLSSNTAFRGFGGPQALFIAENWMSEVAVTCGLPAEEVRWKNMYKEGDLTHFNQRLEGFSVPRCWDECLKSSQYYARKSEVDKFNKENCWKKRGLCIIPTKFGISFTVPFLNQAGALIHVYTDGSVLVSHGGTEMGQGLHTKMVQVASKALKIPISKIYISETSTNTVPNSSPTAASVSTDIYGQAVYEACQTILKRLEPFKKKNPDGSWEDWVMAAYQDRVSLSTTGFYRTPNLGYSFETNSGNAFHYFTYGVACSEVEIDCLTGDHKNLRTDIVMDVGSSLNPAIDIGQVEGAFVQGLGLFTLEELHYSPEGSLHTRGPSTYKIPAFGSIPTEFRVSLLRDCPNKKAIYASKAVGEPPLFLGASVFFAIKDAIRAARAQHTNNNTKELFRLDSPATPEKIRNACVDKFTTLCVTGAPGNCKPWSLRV
T2 sequence (P80457 whole entry): as above

With `CC(C)=CCc1c(O)c(CC=C(C)C)c2occ(-c3ccc(O)c(O)c3)c(=O)c2c1O` [Compound 3, 6,8-diprenylorobol], the “Reversibility of XO inhibition” value in assay [1] is on record as “reversible”. Moreover, on xanthine oxidase (excitation 290 nm, emission 300-400 nm), the “Stern–Volmer constant KSV” value is 125300 L/mol. Moreover, the Kd at xanthine oxidase (excitation 290 nm, emission 300-400 nm, read-out: binding constant KA (converted)) was 1110 nM. For the same molecule, the “number of binding sites n” value on xanthine oxidase (fluorescence quenching) came to 1.4392. Moreover, in the assay with human LDL [2], the “Lag Time of conjugated diene formation” value is reported as over 180 min. Besides, the Ki (in general, the equilibrium dissociation constant of an inhibitor or competing ligand from its target) was found to be 5.5 µM in assay [3] (Dixon plots, read-out: Ki (inhibition constant)) and 5.7 µM in assay [3] (binding of inhibitor to free enzyme, secondary plot of slope, read-out: KI). Also, the “Inhibition Mode” value in assay [3] (Lineweaver–Burk plots, xanthine 15, 30, 60 μM) was “Mixed type I”. The KIS in assay [3] (binding of inhibitor to enzyme-substrate complex, secondary plot of intercept) was determined as 15.5 µM. Further, the IC50 (commonly the concentration at which inhibition is half-maximal) in the assay on human LDL [4] (LDL 500 μg/mL, 10 μM Cu2+, 37 °C, 4 h) is 1900 nM; in assay [5], 7.8 µM. The “Inhibition Rate” value in the assay with human LDL [4] (at 10 μM of compound, oxidized LDL induced by Cu2+) is 98.6%.
